Consider 16 compounds from patent US9902696B2, “1,4-substituted piperidine derivatives” (Cephalon, Inc., priority 2015, dated 2018).

Each structure is given as a SMILES string. Where a name gives a salt, the structure may show the parent alone.

T1 sequence (P49327 whole entry): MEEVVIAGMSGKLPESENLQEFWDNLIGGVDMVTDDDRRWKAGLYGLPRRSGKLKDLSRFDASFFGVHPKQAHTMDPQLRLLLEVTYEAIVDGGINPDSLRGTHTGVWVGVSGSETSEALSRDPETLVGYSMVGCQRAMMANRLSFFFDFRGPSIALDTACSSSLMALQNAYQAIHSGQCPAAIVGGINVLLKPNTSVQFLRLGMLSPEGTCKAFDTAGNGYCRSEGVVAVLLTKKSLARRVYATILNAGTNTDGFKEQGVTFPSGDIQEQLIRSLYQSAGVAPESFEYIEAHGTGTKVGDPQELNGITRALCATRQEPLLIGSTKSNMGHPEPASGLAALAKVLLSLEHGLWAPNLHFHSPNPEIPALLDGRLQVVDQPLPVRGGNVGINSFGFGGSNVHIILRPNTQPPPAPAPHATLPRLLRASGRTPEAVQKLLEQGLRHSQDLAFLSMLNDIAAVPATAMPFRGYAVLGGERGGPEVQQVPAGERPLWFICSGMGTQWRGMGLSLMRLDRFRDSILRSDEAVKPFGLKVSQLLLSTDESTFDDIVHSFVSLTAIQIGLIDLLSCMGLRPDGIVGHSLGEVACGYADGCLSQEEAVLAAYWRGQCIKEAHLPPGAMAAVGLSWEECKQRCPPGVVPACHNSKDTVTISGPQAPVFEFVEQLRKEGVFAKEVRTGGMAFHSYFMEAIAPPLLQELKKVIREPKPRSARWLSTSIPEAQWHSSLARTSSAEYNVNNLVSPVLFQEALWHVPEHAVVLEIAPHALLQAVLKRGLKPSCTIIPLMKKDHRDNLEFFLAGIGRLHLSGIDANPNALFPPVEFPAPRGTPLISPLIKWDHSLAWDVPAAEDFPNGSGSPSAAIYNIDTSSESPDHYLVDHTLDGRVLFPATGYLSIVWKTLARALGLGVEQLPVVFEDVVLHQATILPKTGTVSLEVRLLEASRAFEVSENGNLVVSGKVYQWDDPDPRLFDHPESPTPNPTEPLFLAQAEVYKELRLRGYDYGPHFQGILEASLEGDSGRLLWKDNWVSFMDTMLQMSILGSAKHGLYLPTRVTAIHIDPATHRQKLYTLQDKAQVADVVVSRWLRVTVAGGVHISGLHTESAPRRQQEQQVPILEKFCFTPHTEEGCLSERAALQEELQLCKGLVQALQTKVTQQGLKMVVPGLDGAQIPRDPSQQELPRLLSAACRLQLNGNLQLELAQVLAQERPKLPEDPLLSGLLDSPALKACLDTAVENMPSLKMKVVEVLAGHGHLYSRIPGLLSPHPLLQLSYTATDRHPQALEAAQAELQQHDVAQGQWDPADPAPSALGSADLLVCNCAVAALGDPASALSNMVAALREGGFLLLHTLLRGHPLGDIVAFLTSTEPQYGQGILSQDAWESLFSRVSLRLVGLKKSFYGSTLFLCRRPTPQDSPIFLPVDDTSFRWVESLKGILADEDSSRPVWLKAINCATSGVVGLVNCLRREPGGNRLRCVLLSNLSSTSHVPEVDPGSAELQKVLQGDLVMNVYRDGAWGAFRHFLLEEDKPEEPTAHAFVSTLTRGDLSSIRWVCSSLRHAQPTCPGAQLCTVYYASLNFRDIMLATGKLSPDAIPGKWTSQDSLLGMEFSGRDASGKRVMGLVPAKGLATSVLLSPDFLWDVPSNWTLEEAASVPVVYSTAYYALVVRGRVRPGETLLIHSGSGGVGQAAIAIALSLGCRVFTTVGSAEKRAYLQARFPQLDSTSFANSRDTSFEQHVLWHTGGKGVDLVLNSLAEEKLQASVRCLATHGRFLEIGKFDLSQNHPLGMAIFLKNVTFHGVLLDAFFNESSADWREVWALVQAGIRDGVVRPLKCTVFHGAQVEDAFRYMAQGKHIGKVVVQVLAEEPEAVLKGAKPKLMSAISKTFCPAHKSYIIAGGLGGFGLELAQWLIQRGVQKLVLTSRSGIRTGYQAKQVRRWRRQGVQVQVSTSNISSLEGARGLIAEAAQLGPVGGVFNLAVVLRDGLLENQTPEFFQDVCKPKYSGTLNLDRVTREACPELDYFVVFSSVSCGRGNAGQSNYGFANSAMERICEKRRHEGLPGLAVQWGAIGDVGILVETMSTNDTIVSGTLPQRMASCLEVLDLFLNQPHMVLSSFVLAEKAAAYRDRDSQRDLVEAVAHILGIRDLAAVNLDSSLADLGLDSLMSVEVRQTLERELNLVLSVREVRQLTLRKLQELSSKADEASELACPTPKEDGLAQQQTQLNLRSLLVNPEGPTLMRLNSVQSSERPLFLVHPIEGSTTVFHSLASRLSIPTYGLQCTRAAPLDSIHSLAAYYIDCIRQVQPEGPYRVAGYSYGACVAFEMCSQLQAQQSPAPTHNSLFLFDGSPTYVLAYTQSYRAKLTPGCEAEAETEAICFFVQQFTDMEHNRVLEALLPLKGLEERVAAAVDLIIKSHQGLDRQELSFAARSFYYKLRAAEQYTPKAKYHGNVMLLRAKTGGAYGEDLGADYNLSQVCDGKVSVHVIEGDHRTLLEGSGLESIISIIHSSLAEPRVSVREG

This assay concerns the target T1, recombinant human baculovirus-expressed GST-tagged FASN (Homo sapiens, UniProt P49327).
T1 construct: GST
Nature of the assay: FASN enzyme activity assay, fluorescence-based detection of CoA with CPM. Type of assay: biochemical. To be noted: 5 nM FASN, 150 μM NADPH, 10 μM acetyl-CoA, 25 μM malonyl-CoA, 90 minutes incubation; read-out: IC50 data for Compounds of Formulae I-V/V(a): Activity. The method, boiled down: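 Human GST-tagged FASN, baculovirus-expressed (5 nM), in 50 mM HEPES pH 7.5 with 150 μM NADPH, 10 μM acetyl-CoA, 25 μM malonyl-CoA, 0.5% DMSO; malonyl-CoA-started, 90 min. Released CoA detected with CPM (50 μM dilution), 30 min, fluorescence ex 390/em 530. IC50 from variable-slope sigmoidal fit of % inhibition versus log concentration.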
Take `CCC(=O)N1CCC(Oc2ccc(-c3ccc4c(Cl)nccc4c3)cc2)CC1` [Example 419, 1-{4-[4-(1-Chloroisoquinolin-6-yl)-phenoxy]-piperidin-1-yl}-propan-1-one]: the IC50 is 100 to 999 nM.

For `O=C(C1CC1)N1CCC(Oc2ccc(-c3ccc4c(Cl)nccc4c3)cc2)CC1` [Example 420, {4-[4-(1-Chloroisoquinolin-6-yl)-phenoxy]-piperidin-1-yl}-cyclopropyl-methanone], the IC50 fell in the range of 100 to 999 nM.

In the case of `CCC(=O)N1CCC(Oc2ccc(-c3ccc4cnc(N(C)C)cc4c3)cc2)CC1` [Example 421, 1-{4-[4-(3-Dimethylaminoisoquinolin-6-yl)-phenoxy]-piperidin-1-yl}-propan-1-one], the IC50 is 1000 to 10000 nM.

As for `CCC(=O)N1CCC(Oc2ccc(-c3ccc4cnc(N)cc4c3)cc2)CC1` [Example 422, 1-{4-[4-(3-Aminoisoquinolin-6-yl)-phenoxy]-piperidin-1-yl}-propan-1-one], the IC50 lay within 100 to 999 nM.

With `Nc1cc2cc(-c3ccc(OC4CCN(C(=O)C5CC5)CC4)cc3)ccc2cn1` [Example 423, {4-[4-(3-Aminoisoquinolin-6-yl)-phenoxy]-piperidin-1-yl}-cyclopropyl-methanone], the IC50 was 100 to 999 nM.

As for `COc1cc(-c2ccc(OC3CCN(C(=O)[C@H]4CCCO4)CC3)cc2)cn2nccc12` [Example 424, {4-[4-(4-Methoxypyrazolo[1,5-a]pyridin-6-yl)-phenoxy]-piperidin-1-yl}-(R)-tetrahydrofuran-2-yl-methanone, HCl], the IC50 fell in the range of 1 to 99 nM.

Consider `CCC(=O)N1CCC(Oc2ccc(-c3ccc4c(C)nccc4c3)cc2)CC1` [Example 425, 1-{4-[4-(1-Methylisoquinolin-6-yl)-phenoxy]-piperidin-1-yl}-propan-1-one], for which the IC50 was in the range of 1 to 99 nM.

`CCC(=O)N1CCC(Oc2ccc(-c3cc(O)c4ccnn4c3)cc2)CC1` [Example 426, 1-{4-[4-(4-Hydroxypyrazolo[1,5-a]pyridin-6-yl)-phenoxy]-piperidin-1-yl}-propan-1-one]: the IC50 fell in the range of 1000 to 10000 nM.

Take `O=C(C1CCC1)N1CCC(Oc2ccc(-c3cc(O)c4ccnn4c3)cc2)CC1` [Example 427, Cyclobutyl-{4-[4-(4-hydroxy-pyrazolo[1,5-a]pyridin-6-yl)-phenoxy]-piperidin-1-yl}-methanone]: the IC50 was 1000 to 10000 nM.

`O=C(C1CCC1)N1CCC(Oc2ccc(-c3ccc4c(Cl)nccc4c3)cc2)CC1` [Example 428, {4-[4-(1-Chloroisoquinolin-6-yl)-phenoxy]-piperidin-1-yl}-cyclobutyl-methanone]: the IC50 lay within 100 to 999 nM.

Regarding `O=C([C@H]1CCCO1)N1CCC(Oc2ccc(-c3ccc4c(Cl)nccc4c3)cc2)CC1` [Example 429, {4-[4-(1-Chloroisoquinolin-6-yl)-phenoxy]-piperidin-1-yl}-(R)-tetrahydro-furan-2-yl-methanone], the IC50 was 1 to 99 nM.

For the compound `CCC(=O)N1CCC(Oc2ccc(-c3ccc4cnc(C)cc4c3)cc2)CC1` [Example 430, 1-{4-[4-(3-Methylisoquinolin-6-yl)-phenoxy]-piperidin-1-yl}-propan-1-one], the IC50 is 1000 to 10000 nM.

Turning to `Cc1nccc2cc(-c3ccc(OC4CCN(C(=O)[C@H]5CCCO5)CC4)cc3)ccc12` [Example 431, {4-[4-(1-Methylisoquinolin-6-yl)-phenoxy]-piperidin-1-yl}-(R)-tetrahydro-furan-2-yl-methanone], the IC50 lay in the range of 1 to 99 nM.

As for `COc1nccc2cc(-c3ccc(OC4CCN(C(=O)[C@H]5CCCO5)CC4)cc3)ccc12` [Example 432, {4-[4-(1-Methoxyisoquinolin-6-yl)-phenoxy]-piperidin-1-yl}-(R)-tetrahydro-furan-2-yl-methanone], the IC50 fell in the range of 1 to 99 nM.

In the case of `CCC(=O)N1CCC(Oc2ccc(-c3ccc4c(OC)nccc4c3)cc2)CC1` [Example 433], the IC50 was in the range of 100 to 999 nM.

For `COc1nccc2cc(-c3ccc(OC4CCN(C(=O)C5CCC5)CC4)cc3)ccc12` [Example 434, Cyclobutyl-{4-[4-(1-methoxyisoquinolin-6-yl)-phenoxy]-piperidin-1-yl}-methanone], the IC50 is 100 to 999 nM.
